IC50, EC50 and EC100 data for eight compounds are collected here from patent US8563715B2, “Pyrimidine derivative having cell protecting effect and uses thereof” (Zenyaku Kogyo Kabushikikaisha, priority 2008, dated 2013).

Experiment [1] concerns rat brain homogenate (lipid peroxide production). Description: Antioxidant activity test (rat brain homogenate autoxidation test). The format is biochemical. Particulars: lipid peroxide production suppression, 2 hours at 37 degrees Celsius, thiobarbituric acid method. As to the method:
The cerebrum was removed from 7 to 11 week old male Wistar rats (Nihon Ikagaku) or male Sprague-Dawley (IGS) rats (Charles River), physiological saline was added, and a 20% brain homogenate was made. 4 μl of test compound dissolved in DMSO was mixed with 200 μl of brain homogenate and 200 μl of PBS (−) (diluted 100 times), incubated for 2 hours at 37 degrees Celsius and shaken at a rate of 160 times per minute, thereby producing a lipid peroxide. After cooling for 5 minutes, the produced lipid peroxide was measured as a thiobarbituric acid reactive substance by using the thiobarbituric acid method. Briefly, 100 μl of 8.1% dodecyl sulfate, 750 μl of 20% acetic acid adjusted to a pH of 3.5, and 750 μl of 0.8% thiobarbituric acid were added, and boiled for 60 minutes, and then cooled. Next, 500 μl of distilled water and 2.5 ml of N-butanol/pyridine (15:1) were added and after 5 minutes of shaking, the supernatant was taken after centrifuging for 10 minutes at 3000 rpm, and the absorbance at 532 nm was measured. The number of examples was 2 examples. Calculation was done of the (absorbance at each concentration/absorbance of a solvent control)×100, and after logit transformation, the lipid peroxide production suppression effect (IC 50 value) was calculated as an indicator of antioxidant activity.

Experiment [2] concerns astrocyte/neuron co-culture. Description: Brain cell damage induced by hydrogen peroxide treatment (LDH assay). The format is cell-based. As to conditions: Rattus norvegicus, hydrogen peroxide (250 μM), 24 hours, read-out: 50% inhibition concentration against cell damage in entire co-culture system (EC50 value). The procedure, abridged: (§1)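 Rat primary cortical/hippocampal co-cultures were used 8–9 days after plating neurons (E18.5) on neonatal astrocyte layers. Test substance was added together with 250 μM hydrogen peroxide, and cells were analysed 24 h later. LDH release gave EC50 for protection of the whole co-culture, and microscopy of neuronal cell bodies and processes gave neuroprotection.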

For experiment [3], the system named is neurons in astrocyte/neuron co-culture. In words: Brain cell damage induced by hydrogen peroxide treatment (neuroprotective effect, microscope observation). The class given is cell-based. As to conditions: Rattus norvegicus, hydrogen peroxide (250 μM), 24 hours, read-out: Concentration for complete inhibition of neuronal death. The procedure, abridged: as §1

Structures are written as SMILES.

In experiment [1], `CN(C)c1nc(N2CCOCC2)c(F)c(N2CCN(c3ccccc3Cl)CC2)n1` [Compound 110, 4-[4-(2-chlorophenyl)piperazin-1-yl]-2-dimethylamino-5-fluoro-6-morpholinopyrimidine] displayed an IC50 of 3020 nM. Besides, the EC50 in experiment [2] came to 330 nM. Besides, the EC100 in experiment [3] is 1 µM.
Taken in the same sequence, the figures for `Fc1c(N2CCOCC2)nc(N2Cc3ccccc3C2)nc1N1CCOCC1` [Compound 89, 5-fluoro-2-(isoindolin-2-yl)-4,6-dimorpholinopyrimidine] were 3480 nM, 530 nM and 3 µM.
As to `COc1ccc(/C=C/c2nc(N3CCOCC3)c(N)c(N3CCC(N)CC3)n2)cc1` [Compound 196, 5-amino-4-(4-aminopiperidin-1-yl)-2-[2-(4-methoxyphenyl)vinyl]-6-morpholinopyrimidine], the midpoint of inhibition in experiment [1], the IC50, lay at 2730 nM. The EC50 in experiment [2] came out at 3780 nM. The EC100 in experiment [3] was determined as 10 µM.
In experiment [1], `Cc1cccc(N2CCN(c3nc(N4CCOCC4)c(F)c(N4CCOCC4)n3)CC2)c1C` [Compound 105, 5-fluoro-4,6-dimorpholino-2-[4-(2,3-xylyl)piperazin-1-yl]pyrimidine] returned an IC50 of 2770 nM. Further, in experiment [2], the EC50 was 290 nM. In addition, the EC100 in experiment [3] worked out at 1 µM.
For the compound `COc1ccc(/C=C/c2nc(N(C)C)c(N)c(N(C)C)n2)cc1` [Compound 140, 5-amino-4,6-bis(dimethylamino)-2-[2-(4-methoxyphenyl)vinyl]pyrimidine], the IC50 in experiment [1] was 550 nM. For the same compound, the EC50 in experiment [2] was 5150 nM. In experiment [3], the EC100 worked out at 10 µM.
In turn, `Nc1ccc(N2CCN(c3nc(N4CCOCC4)nc(N4CCOCC4)c3F)CC2)cc1` [Compound 146, 4-[4-(4-aminophenyl)piperazin-1-yl]-5-fluoro-2,6-dimorpholinopyrimidine] gave an IC50 in experiment [1] of 1910 nM. Moreover, the EC50 in experiment [2] was found to be 960 nM. The EC100 in experiment [3] was found to be 3 µM.
Compound `COc1ccc(C=Cc2nc(N3CCOCC3)c(N)c(N3CCOCC3)n2)cc1` [Compound 131, 5-amino-2-[2-(4-methoxyphenyl)vinyl]-4,6-dimorpholinopyrimidine] showed an IC50 in experiment [1] of 7040 nM. Besides, the EC50 in experiment [2] was found to be 8990 nM. The EC100 in experiment [3] was 10 µM.
Turning to `COc1ccc(/C=C/c2nc(N3CCOCC3)c(N)c(N3CCN(CCN(C)C)CC3)n2)cc1` [Compound 175, 5-amino-2-[2-(4-methoxyphenyl)vinyl]-4-[4-(2-dimethylaminoethyl-piperazin-1-yl)]-6-morpholinopyrimidine], the midpoint of inhibition in experiment [1], the IC50, lay at 2080 nM. Further, the EC50 in experiment [2] came out at 3240 nM. In experiment [3], the EC100 came out at 10 µM.

The IC50 is the concentration that gives 50% inhibition. Read a low IC50 as higher potency.
